Counter-ions that a name gives are not always drawn.
system: MTT (mouse pheochromocytoma); assay: IC50 of cell viability (ATP content); conditions: (24 or 48 h)
Summary of the method: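 Cells of the MTT mouse pheochromocytoma line, 5 µl per well at 200,000 cells/ml, were grown overnight at 37°C, 5% CO2 in white 1536-well plates with DMEM, 5% FBS and 1% horse serum. Pintool transfer then delivered 23 nl of library compound in DMSO, giving 8 final concentrations from 0.5 nM to 46 µM, for an exposure of 24 or 48 hrs. Luminescence from CellTiter-Glo was read after 15 minutes and referenced to positive-control wells (100%) and DMSO wells (0%). IC50 was calculated with a four-parameter logistic fit.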

Structure (SMILES)	IC50 of cell viability [µM]
CO[C@H]1C[C@@H]2CC[C@@H](C)[C@@](O)(O2)C(=O)C(=O)N2CCCC[C@H]2C(=O)O[C@H]([C@H](C)C[C@@H]2CC[C@@H](OC(=O)C(C)(CO)CO)[C@H](OC)C2)CC(=O)[C@H](C)C=C(C)[C@@H](O)[C@@H](OC)C(=O)[C@H](C)C[C@H](C)/C=C/C=C/C=C1C [TEMSIROLIMUS]	> 46
[N-]=[N+]=CC(=O)OCC(N)C(=O)O (centres undefined) [AZASERINE]	> 46
Cc1cc(CC(=O)O)c(C)n1-c1ccc(Cl)cc1 [Clopirac]	> 46
ClCC1CO1 (centres undefined) [1,2-Epoxy-3-chloropropane (Epichlorohydrin)]	> 46
CC(O)C1CCC2C3CCC4CC(O)CCC4(C)C3CCC12C (centres undefined) [Pregnandiol]	> 46
C[C@H](O)[C@H]1[C@@H]2C\C(=C(/N2C1=O)C(O)=O)SCCNC=N [Imipenem]	> 46
COc1ccc2cc1Oc1ccc(cc1)CC1c3c(cc4c(c3Oc3cc5c(cc3OC)CCN(C)C5C2)OCO4)CCN1C (centres undefined) [CEPHARANTHINE]	> 46
CO/N=C1/CC2(CC3CC(CC=C(C)CC(C)C=CC=C4COC5C(O)C(C)=CC(C(=O)O3)C45O)O2)OC(/C(C)=C/C(C)C)C1C (centres undefined) [Moxidectin]	> 46
CCN(CC)CCOc1ccc(/C(=C(/Cl)c2ccccc2)c2ccccc2)cc1 [Enclomifene]	> 46
COc1ccc(CCN(C)CCCN2CCc3cc(OC)c(OC)cc3CC2=O)cc1OC [ZATEBRADINUM]	> 46
NC(=O)C(c1ccccc1)(c1ccccc1)[C@@H]1CCN(CCc2ccc3c(c2)CCO3)C1 [DARIFENACIN HYDROBROMIDE]	> 46
OCc1ccccc1 [Benzyl alcohol]	> 46
O=C1NCN(c2ccccc2)C12CCN(CCCOc1ccc(F)cc1)CC2 [AMI-193]	> 46
CO/N=C(/C(=O)N[C@@H]1C(=O)N2C(C(=O)O)=C(CSc3nnnn3C)CS[C@H]12)c1csc(N)n1 [CEFMENOXIME HYDROCHLORIDE]	> 46
CCN(CC)CCOC(=O)c1ccc(N)cc1 [Procaine hydrochloride]	> 46
c1ccc(C2(c3ccccc3)CC2C2=NCCN2)cc1 (centres undefined) [Cibenzoline succinate]	> 46
COC(=O)c1ccccc1O [Methyl salicylate]	> 46
CN(C)C(=O)CNC(=O)Cc1ccccc1 [Acetamide, N,N-dimethyl-2-(2-phenylacetamido)-]	> 46
CN1CCN(CC1)\C2=N\C3=C(NC4=C2C=CC=C4)C=CC(=C3)Cl [CLOZAPINE]	> 46
Cc1ccc([S+](=O)([O-])NC(=O)NC2CCCCC2)cc1 [Glycyclamide]	> 46
Nc1ccc(C(=O)O)cc1 [p-Amino benzoic acid]	> 46
C[N+]1(C)CCC[C@H](OC(=O)C(O)(c2ccccc2)c2ccccc2)C1 [Mepenzolate bromide]	> 46
CCCC(CCC)C(=O)OC1C[C@H]2CC[C@@H](C1)[N+]2(C)C (some centres undefined) [ANISOTROPINE METHYLBROMIDE]	> 46
CN1\C(=C(\O)C2=C(C=CS2)[S+]1([O-])=O)C(=O)NC3=CC=CC=N3 [Tenoxicam]	> 46
OCc1cccnc1 [3-Pyridinemethanol]	> 46

Structure (SMILES)	IC50 of cell viability [µM]
COc1ccccc1Oc1c(N[S+](=O)([O-])c2ccc(C(C)(C)C)cc2)nc(-c2ncccn2)nc1OCCO [BOSENTAN]	> 46
Cc1ccccc1C(=O)Nc1ccc(C(=O)N2CCCC(O)c3cc(Cl)ccc32)c(C)c1 (centres undefined) [TOLVAPTAN]	> 46
Cn1c(=O)c2[nH]cnc2n(C)c1=O [OXTRIPHYLLINE]	> 46
CCN(CC)CCOC(=O)C(c1ccccc1)c1ccccc1.Cl [ADIPHENINE HYDROCHLORIDE]	> 46
Cc1cc(C(C)(C)CC(C)(C)C)ccc1OCCOCC[N+](C)(C)Cc1ccccc1 [Methylbenzethonium chloride]	> 46
N#Cc1ccc(C(c2ccc(C#N)cc2)n2cncn2)cc1 [Letrozole]	> 46
COc1ccc(C(=O)c2c(C)n(CCN3CCOCC3)c3ccccc23)cc1 [Pravadoline maleate]	> 46
O=C([O-])c1c(Cl)c(Cl)c(Cl)c(Cl)c1-c1c2cc(I)c(=O)c(I)c-2oc2c(I)c([O-])c(I)cc12 [Rose Bengal sodium]	> 46
CC1=CC(=CC(=C1C\C2=N\CCN2)C)C(C)(C)C [Xylometazoline hydrochloride]	> 46
CCOC(=O)OC(C)OC1=C(C(=O)Nc2ccccn2)N(C)S(=O)(=O)c2ccccc21 (centres undefined) [ampiroxicam]	> 46
O=C1[O][Bi]([OH])[O]c2ccccc21 [Bismuth subsalicylate]	> 46
CCOC(=O)N1CCC(=C2c3ccc(Cl)cc3CCc3cccnc32)CC1 [LORATADINE]	> 46
CCCCCCCCCC(=O)O[C@H]1CC[C@H]2[C@@H]3CCC4=CC(=O)CC[C@@H]4[C@H]3CC[C@]12C [Nandrolone decanoate]	> 46
CCCCC1C(=O)N(c2ccccc2)N(c2ccccc2)C1=O [PHENYLBUTAZONE]	> 46
CCC(=O)O[C@@H](OP(=O)(CCCCc1ccccc1)CC(=O)N1C[C@H](C2CCCCC2)C[C@H]1C(=O)[O-])C(C)C (some centres undefined) [FOSINOPRIL SODIUM]	> 46
CC(C)(CO)[C@@H](O)C(=O)NCCC(=O)[O-] [D-Pantothenic acid hemicalcium salt]	> 46
COc1ccnc(C[S+]([O-])c2nc3cc(OC(F)F)ccc3[nH]2)c1OC (centres undefined) [PANTOPRAZOLE]	> 46
Cc1cccc(C)c1OCC(C)N.Cl (centres undefined) [Mexiletene hydrochloride]	> 46
O=C/1O[C@@]23CC(/C=C\C2=C1)N4CCCCC34 (some centres undefined) [SECURININE]	> 46
COC(=O)C1C2CC3c4[nH]c5cc(OC)ccc5c4CCN3CC2CC(OC)C1OC (centres undefined) [METOSERPATE HYDROCHLORIDE]	> 46
O=C1O[C@H]2[C@@H](OC(O)[C@@H]2O)[C@H]1O (some centres undefined) [Glucuronolactone]	> 46
CN(C)CCOC(c1ccc(Cl)cc1)c1ccccn1 (centres undefined) [Carbinoxamine maleate]	> 46
NCC[C@H](O)C(=O)N[C@@H]1C[C@H](N)[C@@H](O[C@H]2O[C@H](CN)[C@@H](O)[C@H](O)[C@H]2O)[C@H](O)[C@H]1O[C@H]1O[C@H](CO)[C@@H](O)[C@H](N)[C@H]1O [Amikacin sulfate]	> 46
C[C@@H](O[C@@H]1OCCN(Cc2nc(=O)[nH][nH]2)[C@@H]1c1ccc(F)cc1)c1cc(C(F)(F)F)cc(C(F)(F)F)c1 [Aprepitant]	> 46
